# Key:
# Type in all cases: in vivo
# Conditions in all cases: CQC-M 0
# [1] = tested on: SASKR; assay: Postemergence herbicidal activity, greenhouse, visual injury: SASKR
# Description: (§1) Evaluation of Postemergence Herbicidal Safening in Cereal Crops
# (§2) Seeds of the desired test plant species were planted in Sun Gro MetroMix® 306 planting mixture, which typically has a pH of 6.0 to 6.8 and an organic matter content of about 30 percent, in plastic pots with a surface area of 103.2 square centimeters (cm^2). When required to ensure good germination and healthy plants, a fungicide treatment and/or other chemical or physical treatment was applied. The plants were grown for 7-36 days (d) in a greenhouse with an approximate 14-hour (h) photoperiod which was maintained at about 18° C. during the day and 17° C. during the night. Nutrients and water were added on a regular basis and supplemental lighting was provided with overhead metal halide 1000-Watt lamps as necessary. The plants were employed for testing when they reached the second or third true leaf stage.
# (§3) Treatments consisted of the acids or esters of compounds 1-10 and cloquintocet-mexyl (CQC-M), fenchlorazole-ethyl, mefenpyr-diethyl alone and in combination. Weighed amounts of acid or methyl esters of the compounds of formula (I) were dissolved in a volume of 97:3 v/v acetone/dimethylsulfoxide (DMSO) to obtain concentrated solutions. […] The concentrated solutions of the test compound were diluted with the addition of an aqueous mixture containing acetone, water, isopropyl alcohol, DMSO, Agri-Dex crop oil concentrate, and Triton® X-77 surfactant in a 64.7:26.0:6.7:2.0:0.7:0.01 v/v ratio. Test compounds were diluted to the appropriate application rate with a dilution solution which was prepared by mixing the appropriate volume of 97:3 v/v acetone/DMSO and the appropriate volume of an aqueous mixture containing acetone, water, isopropyl alcohol, DMSO, Agri-Dex crop oil concentrate, and Triton® X-77 surfactant in a 64.7:26.0:6.7:2.0:0.7:0.01 v/v ratio. Compound requirements are based upon a 12 mL application volume at a rate of 187 liters per hectare (L/ha). The concentrated solutions of the safener were prepared following the same procedure. Weighed amounts of safener were dissolved in a volume of 97:3 v/v acetone/DMSO to obtain concentrated safener solutions.
# (§4) Spray solutions of the herbicide safener and test compound mixtures were prepared by adding the concentrated solutions to the appropriate amount of dilution solution to form 12 mL spray solution with active ingredients in combinations.
# (§5) Formulated compounds were applied to the plant material with an overhead Mandel track sprayer equipped with 8002E nozzles calibrated to deliver 187 L/ha over an application area of 0.503 square meters (m^2) at a spray height of 18 inches (43 centimeters (cm)) above average plant canopy. Control plants were sprayed in the same manner with the solvent blank.
# (§6) The treated plants and control plants were placed in a greenhouse as described above and watered by sub-irrigation to prevent wash-off of the test compounds. After 20-22 d, the condition of the test plants as compared with that of the control plants was determined visually and scored on a scale of 0 to 100 percent where 0 corresponds to no injury and 100 corresponds to complete kill.
# (§7) Colby's equation was used to determine the herbicidal effects expected from the mixtures (Colby, S. R. Calculation of the synergistic and antagonistic response of herbicide combinations. Weeds 1967, 15, 20-22.).
# (§8) The following equation was used to calculate the expected activity of mixtures containing two active ingredients, A and B: Expected=A+B−(A×B/100)
# (§9) A=observed efficacy of active ingredient A at the same concentration as used in the mixture.
# (§10) B=observed efficacy of active ingredient B at the same concentration as used in the mixture.
# [2] = tested on: wild pansy (Viola tricolor; VIOTR); assay: Postemergence herbicidal activity, greenhouse, visual injury: VIOTR
# [3] = tested on: purple deadnettle (Lamium purpureum L; LAMPU); assay: Postemergence herbicidal activity, greenhouse, visual injury: purple deadnettle
# Description: as §1, §2, §3, §4, §5, §6, §7, §8, §9, §10
# [4] = tested on: spring wheat (Triticum aestivum L; TRZAS); assay: Postemergence herbicidal safening in cereal crops, greenhouse, visual injury: spring wheat
# Description: as §1, §2, §3, §4, §5, §6, §7, §8, §9, §10
# [5] = tested on: spring barley (Hordeum vulgare L; HORVS); assay: Postemergence herbicidal safening in cereal crops, greenhouse, visual injury: spring barley
# Description: as §1, §2, §3, §4, §5, §6, §7, §8, §9, §10
# [6] = tested on: MATCH; assay: Postemergence herbicidal activity, greenhouse, visual injury: MATCH
# Description: as §1, §2, §3, §4, §5, §6, §7, §8, §9, §10
# [7] = tested on: kochia (Kochia scoparia L; KCHSC); assay: Postemergence herbicidal activity, greenhouse, visual injury: kochia
# Description: as §1, §2, §3, §4, §5, §6, §7, §8, §9, §10
# [8] = tested on: wild mustard (Sinapis arvensis L.; SINAR); assay: Postemergence herbicidal activity, greenhouse, visual injury: SINAR
# [9] = tested on: bird's-eye speedwell (Veronica persica L; VERPE); assay: Postemergence herbicidal activity, greenhouse, visual injury: bird's-eye speedwell
# Description: as §1, §2, §3, §4, §5, §6, §7, §8, §9, §10
# [10] = tested on: corn poppy (Papaver rhoeas L; PAPRH); assay: Postemergence herbicidal activity, greenhouse, visual injury: corn poppy
# Description: as §1, §2, §3, §4, §5, §6, §7, §8, §9, §10
# [11] = tested on: CIRAR; assay: Postemergence herbicidal activity, greenhouse, visual injury: CIRAR
# Description: as §1, §2, §3, §4, §5, §6, §7, §8, §9, §10
compound,measurement,setting,value
"COc1c(N)nc(-c2ccc(Cl)c(F)c2F)nc1C(=O)O [Compound 10, 6-amino-2-(4-chloro-2,3-difluorophenyl)-5-methoxypyrimidine-4-carboxylic acid]","SASKR Ob (Observed values, % control)",[1]; Compound 10 8.75 g ae/ha,85%
same,"SASKR Ob (Observed values, % control)",[1]; Compound 10 17.5 g ae/ha,87%
same,"SASKR Ob (Observed values, % control)",[1]; Compound 10 35 g ae/ha,90%
same,"SASKR Ob (Observed values, % control)",[1]; Compound 10 70 g ae/ha,93%
same,"SASKR Ob (Observed values, % control)",[1]; Compound 10 140 g ae/ha,95%
same,"VIOTR Ob (Observed values, % control)",[2]; Compound 10 8.75 g ae/ha,70%
same,"VIOTR Ob (Observed values, % control)",[2]; Compound 10 17.5 g ae/ha,75%
same,"VIOTR Ob (Observed values, % control)",[2]; Compound 10 35 g ae/ha,85%
same,"VIOTR Ob (Observed values, % control)",[2]; Compound 10 70 g ae/ha,93%
same,"VIOTR Ob (Observed values, % control)",[2]; Compound 10 140 g ae/ha,97%
same,"LAMPU Ob (Observed values, % control)",[3]; Compound 10 8.75 g ae/ha,95%
same,"LAMPU Ob (Observed values, % control)",[3]; Compound 10 17.5 g ae/ha,95%
same,"LAMPU Ob (Observed values, % control)",[3]; Compound 10 35 g ae/ha,100%
same,"LAMPU Ob (Observed values, % control)",[3]; Compound 10 70 g ae/ha,100%
same,"LAMPU Ob (Observed values, % control)",[3]; Compound 10 140 g ae/ha,100%
same,"TRZAS Ob (Observed values, % control)",[4]; Compound 10 8.75 g ae/ha,45%
same,"TRZAS Ob (Observed values, % control)",[4]; Compound 10 17.5 g ae/ha,55%
same,"TRZAS Ob (Observed values, % control)",[4]; Compound 10 35 g ae/ha,65%
same,"TRZAS Ob (Observed values, % control)",[4]; Compound 10 70 g ae/ha,70%
same,"TRZAS Ob (Observed values, % control)",[4]; Compound 10 140 g ae/ha,75%
same,"HORVS Ob (Observed values, % control)",[5]; Compound 10 8.75 g ae/ha,25%
same,"HORVS Ob (Observed values, % control)",[5]; Compound 10 17.5 g ae/ha,30%
same,"HORVS Ob (Observed values, % control)",[5]; Compound 10 35 g ae/ha,60%
same,"HORVS Ob (Observed values, % control)",[5]; Compound 10 70 g ae/ha,75%
same,"HORVS Ob (Observed values, % control)",[5]; Compound 10 140 g ae/ha,85%
same,"MATCH Ob (Observed values, % control)",[6]; Compound 10 8.75 g ae/ha,70%
same,"MATCH Ob (Observed values, % control)",[6]; Compound 10 17.5 g ae/ha,90%
same,"MATCH Ob (Observed values, % control)",[6]; Compound 10 35 g ae/ha,93%
same,"MATCH Ob (Observed values, % control)",[6]; Compound 10 70 g ae/ha,95%
same,"MATCH Ob (Observed values, % control)",[6]; Compound 10 140 g ae/ha,100%
same,"KCHSC Ob (Observed values, % control)",[7]; Compound 10 8.75 g ae/ha,98%
same,"KCHSC Ob (Observed values, % control)",[7]; Compound 10 17.5 g ae/ha,98%
same,"KCHSC Ob (Observed values, % control)",[7]; Compound 10 35 g ae/ha,100%
same,"KCHSC Ob (Observed values, % control)",[7]; Compound 10 70 g ae/ha,100%
same,"KCHSC Ob (Observed values, % control)",[7]; Compound 10 140 g ae/ha,100%
same,"SINAR Ob (Observed values, % control)",[8]; Compound 10 8.75 g ae/ha,100%
same,"SINAR Ob (Observed values, % control)",[8]; Compound 10 17.5 g ae/ha,100%
same,"SINAR Ob (Observed values, % control)",[8]; Compound 10 35 g ae/ha,100%
same,"SINAR Ob (Observed values, % control)",[8]; Compound 10 70 g ae/ha,100%
same,"SINAR Ob (Observed values, % control)",[8]; Compound 10 140 g ae/ha,100%
same,"VERPE Ob (Observed values, % control)",[9]; Compound 10 8.75 g ae/ha,93%
same,"VERPE Ob (Observed values, % control)",[9]; Compound 10 17.5 g ae/ha,97%
same,"VERPE Ob (Observed values, % control)",[9]; Compound 10 35 g ae/ha,100%
same,"VERPE Ob (Observed values, % control)",[9]; Compound 10 70 g ae/ha,100%
same,"VERPE Ob (Observed values, % control)",[9]; Compound 10 140 g ae/ha,100%
same,"PAPRH Ob (Observed values, % control)",[10]; Compound 10 8.75 g ae/ha,100%
same,"PAPRH Ob (Observed values, % control)",[10]; Compound 10 17.5 g ae/ha,100%
same,"PAPRH Ob (Observed values, % control)",[10]; Compound 10 35 g ae/ha,100%
same,"PAPRH Ob (Observed values, % control)",[10]; Compound 10 70 g ae/ha,100%
same,"PAPRH Ob (Observed values, % control)",[10]; Compound 10 140 g ae/ha,100%
same,"CIRAR Ob (Observed values, % control)",[11]; Compound 10 8.75 g ae/ha,80%
same,"CIRAR Ob (Observed values, % control)",[11]; Compound 10 17.5 g ae/ha,85%
same,"CIRAR Ob (Observed values, % control)",[11]; Compound 10 35 g ae/ha,90%
same,"CIRAR Ob (Observed values, % control)",[11]; Compound 10 70 g ae/ha,90%
same,"CIRAR Ob (Observed values, % control)",[11]; Compound 10 140 g ae/ha,100%

# — US9408387B2, “Safening 6-amino-2-(substituted phenyl)-5-substituted-4-pyrimidinecarboxylate herbicide injury on cereal crops” (Dow AgroSciences LLC, priority 2009, dated 2016)
